Molecules are shown by their SMILES.

By IC50 is commonly meant the midpoint of a concentration-inhibition curve.

The test has as its target T1, gelatinase A (Homo sapiens, UniProt P08253).
T1 construct: endogenous in cells; host or cells: human normal skin dermal fibroblasts (HNDF)
T1 sequence (P08253 110-660): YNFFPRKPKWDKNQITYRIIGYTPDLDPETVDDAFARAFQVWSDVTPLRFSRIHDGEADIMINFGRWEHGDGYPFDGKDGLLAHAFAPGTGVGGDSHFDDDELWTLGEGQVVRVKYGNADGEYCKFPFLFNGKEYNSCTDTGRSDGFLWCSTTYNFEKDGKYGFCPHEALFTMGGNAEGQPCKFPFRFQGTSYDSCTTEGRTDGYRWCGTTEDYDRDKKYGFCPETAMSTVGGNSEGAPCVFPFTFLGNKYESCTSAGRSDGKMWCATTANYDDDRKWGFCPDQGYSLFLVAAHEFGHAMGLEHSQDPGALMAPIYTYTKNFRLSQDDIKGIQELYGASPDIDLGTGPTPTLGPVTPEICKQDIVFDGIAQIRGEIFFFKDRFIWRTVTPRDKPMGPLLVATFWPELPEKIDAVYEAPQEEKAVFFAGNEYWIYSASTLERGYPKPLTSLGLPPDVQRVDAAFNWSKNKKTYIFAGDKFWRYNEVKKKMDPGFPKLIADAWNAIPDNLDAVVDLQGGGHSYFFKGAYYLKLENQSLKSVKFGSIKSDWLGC
Kind of test: Inhibitory activity against gelatinase A (FITC-labeled gelatin degradation). The class given is biochemical. The settings on record: progelatinase A from human normal skin dermal fibroblasts (HNDF), APMA-activated, 2 hours at 37° C., read-out: IC50 for inhibition of gelatinase A activity. The protocol:
The potency of inhibitory activity against each matrix metalloproteinases is confirmed as below. The IC50 value for inhibition of gelatinase A activity is determined as follows.
(1) Inhibitory activity against gelatinase A
The progelatinase A (7 μl; in assay buffer (90 μl)) was purified from human normal skin dermal fibroblasts (HNDF). It was activated by the addition of 10 mM of p-aminophenylmercuric acetate (APMA) (10 μl) for 1 hour at 37° C.
The solution of activated gelatinase A (7 μl/tube, 98 μl) was mixed with various concentrations of the test compound or dimethylsulfoxide (2 μl) and gelatin (100 μl) labeled with 0.05% fluorescein isothiocyanate (FITC) and incubated for 2 hours at 37° C. The reaction was terminated by the addition of 0.1M Tris-HCl (pH9.5) containing 94.7% ethanol (750 μl). The mixture was stirred and then allowed to stand for 30 minutes at 0° C. The mixture was centrifuged for 30 minutes at 900×g. The IC50 was determined by measuring the fluorescent intensity in supernatant (Ex=495 nm, and Em=520 nm).

As to `O=C(O)CNS(=O)(=O)c1ccc(NC(=O)c2ccccc2)cc1` [Example 2(10), N-[[4-(Benzoylamino)phenyl]sulfonyl]glycine], the IC50 came out at 0.66 µM.
Consider `CCCCCc1ccc(C(=O)Nc2ccc(S(=O)(=O)NCC(=O)O)cc2)cc1` [Example 2(35), N-[[4-(4-Pentylbenzoylamino)phenyl]sulfonyl]glycine], for which the IC50 was 0.013 µM.
The value for `CCCCCc1ccc(C(=O)Nc2ccc(S(=O)(=O)N[C@H](Cc3ccccc3)C(=O)O)cc2)cc1` [Example 2(63), N-[[4-(4-Pentylbenzoylamino)phenyl]sulfonyl]-D-phenylalanine] was 0.0023 µM.
Consider `O=C(O)CNS(=O)(=O)c1ccc(OC(=O)c2ccccc2)cc1` [compound 6], for which the IC50 came out at 0.42 µM.
The figure for `O=C(O)CNS(=O)(=O)c1ccc(NC(=O)c2ccc(F)cc2)cc1` [Example 2(11), N-[[4-(4-Fluorobenzoylamino)phenyl]sulfonyl]glycine] is 0.8 µM; for `Cc1ccc(C(=O)Nc2ccc(S(=O)(=O)NCC(=O)O)cc2)cc1` [compound 2] it is 0.11 µM; for `Cc1ccc(C(=O)Nc2ccc(S(=O)(=O)N[C@H](Cc3c[nH]c4ccccc34)C(=O)O)cc2)cc1` [Example 3(13), N-[[4-(p-Toluoylamino)phenyl]sulfonyl]-D-tryptophan] it is 0.0027 µM.
Regarding `N=C(N)c1ccc(OC(=O)c2ccc(S(=O)(=O)N[C@@H](Cc3ccccc3)C(=O)O)cc2)cc1` [Example 10(1), N-[[4-(4-Amidinophenoxycarbonyl)phenyl]sulfonyl]-L-phenylalanine methansulfonate], the IC50 amounted to 0.7 µM.
